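Values below derive from 48-hour exposures of cells grown in 96-well plates, with endpoints linearly interpolated between the two concentrations bracketing the appropriate inhibition level. GI50: concentration for 50% inhibition of growth. TGI denotes the concentration required for complete inhibition of growth.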
How the values were obtained:
Assay in all cases: NCI anticancer screen, dose series, 48 h
IGROV1 ovarian = test system: IGROV1 ovarian
MDA-MB-231 breast = test system: MDA-MB-231 breast
ACHN renal = test system: ACHN renal
OVCAR-5 ovarian = test system: OVCAR-5 ovarian
UO-31 renal = test system: UO-31 renal
T-47D breast = test system: T-47D breast
SNB-75 CNS = test system: SNB-75 CNS
HT29 colon = test system: HT29 colon
U251 CNS = test system: U251 CNS
HCT-15 colon = test system: HCT-15 colon
OVCAR-8 ovarian = test system: OVCAR-8 ovarian
MDA-MB-435 = test system: MDA-MB-435
K-562 leukemia = test system: K-562 leukemia
786-0 renal = test system: 786-0 renal
SN12C renal = test system: SN12C renal
SF-268 CNS = test system: SF-268 CNS
HCT-116 colon = test system: HCT-116 colon
SK-OV-3 ovarian = test system: SK-OV-3 ovarian
EKVX NSCLC = test system: EKVX NSCLC
DU-145 prostate = test system: DU-145 prostate
MALME-3M melanoma = test system: MALME-3M melanoma
PC-3 prostate = test system: PC-3 prostate
SR leukemia = test system: SR leukemia
HOP-62 NSCLC = test system: HOP-62 NSCLC
SF-539 CNS = test system: SF-539 CNS
SNB-19 CNS = test system: SNB-19 CNS
SW-620 colon = test system: SW-620 colon
HCC-2998 colon = test system: HCC-2998 colon
NCI-H226 lung = test system: NCI-H226 lung
NCI-H23 lung = test system: NCI-H23 lung
SK-MEL-2 melanoma = test system: SK-MEL-2 melanoma
MCF7 breast = test system: MCF7 breast
UACC-62 melanoma = test system: UACC-62 melanoma
MDA-MB-468 breast = test system: MDA-MB-468 breast
BT-549 breast = test system: BT-549 breast
OVCAR-4 ovarian = test system: OVCAR-4 ovarian
HOP-92 NSCLC = test system: HOP-92 NSCLC
MOLT-4 leukemia = test system: MOLT-4 leukemia
SK-MEL-28 melanoma = test system: SK-MEL-28 melanoma
A498 renal = test system: A498 renal
A549 NSCLC = test system: A549 NSCLC
RXF 393 renal = test system: RXF 393 renal
M14 melanoma = test system: M14 melanoma
KM12 colon = test system: KM12 colon
TK-10 renal = test system: TK-10 renal
LOX IMVI melanoma = test system: LOX IMVI melanoma
NCI-H522 lung = test system: NCI-H522 lung
UACC-257 melanoma = test system: UACC-257 melanoma
SF-295 CNS = test system: SF-295 CNS
CCRF-CEM leukemia = test system: CCRF-CEM leukemia
CAKI-1 renal = test system: CAKI-1 renal
OVCAR-3 ovarian = test system: OVCAR-3 ovarian
SK-MEL-5 melanoma = test system: SK-MEL-5 melanoma
HL-60(TB) leukemia = test system: HL-60(TB) leukemia
NCI-H460 lung = test system: NCI-H460 lung
COLO 205 colon = test system: COLO 205 colon

## C=C1CC[C@@H]2[C@]3(C)COC(c4cn[nH]c4-c4ccc(OC)cc4)O[C@@H]3CC[C@@]2(C)[C@@H]1C/C=C1/C(=O)OCC1O (some centres not stated)
IGROV1 ovarian
  GI50: 3.98 µM
  TGI: 20 µM
MDA-MB-231 breast
  GI50: 2.39 µM
  TGI: 5.48 µM
ACHN renal
  GI50: 3.52 µM
  TGI: 14.1 µM
OVCAR-5 ovarian
  GI50: 3.9 µM
  TGI: 13.4 µM
UO-31 renal
  GI50: 1.7 µM
  TGI: 3.91 µM
T-47D breast
  GI50: 3.25 µM
  TGI: > 100 µM
SNB-75 CNS
  GI50: 1.75 µM
  TGI: 5.86 µM
HT29 colon
  GI50: 2.86 µM
  TGI: 7.91 µM
U251 CNS
  GI50: 2.77 µM
  TGI: 10.7 µM
HCT-15 colon
  GI50: 2.54 µM
  TGI: 8.37 µM
OVCAR-8 ovarian
  GI50: 3.34 µM
  TGI: > 100 µM
MDA-MB-435
  GI50: 2.24 µM
  TGI: 6.42 µM
K-562 leukemia
  GI50: 2.71 µM
  TGI: > 100 µM
786-0 renal
  GI50: 1.92 µM
  TGI: 3.6 µM
SN12C renal
  GI50: 3.54 µM
  TGI: 16.5 µM
SF-268 CNS
  GI50: 3.25 µM
  TGI: > 100 µM
HCT-116 colon
  GI50: 1.86 µM
  TGI: 3.57 µM
SK-OV-3 ovarian
  GI50: 10.5 µM
  TGI: 67.4 µM
EKVX NSCLC
  GI50: 2.66 µM
  TGI: 10.5 µM
DU-145 prostate
  GI50: 3.23 µM
  TGI: 12.1 µM
MALME-3M melanoma
  GI50: 1.74 µM
  TGI: 3.64 µM
PC-3 prostate
  GI50: 2.98 µM
  TGI: > 100 µM
SR leukemia
  GI50: 2.87 µM
  TGI: > 100 µM
HOP-62 NSCLC
  GI50: 3.44 µM
  TGI: 14.2 µM
SF-539 CNS
  GI50: 2.03 µM
  TGI: 4.36 µM
SNB-19 CNS
  GI50: 4.42 µM
  TGI: 19.4 µM
SW-620 colon
  GI50: 2.29 µM
  TGI: 5.56 µM
HCC-2998 colon
  GI50: 2.87 µM
  TGI: 8.28 µM
NCI-H226 lung
  GI50: 3.58 µM
  TGI: 18.4 µM
NCI-H23 lung
  GI50: 2.51 µM
  TGI: 7.69 µM
SK-MEL-2 melanoma
  GI50: 3.97 µM
  TGI: 17.8 µM
MCF7 breast
  GI50: 2.48 µM
  TGI: 11.8 µM
UACC-62 melanoma
  GI50: 1.68 µM
  TGI: 4.06 µM
MDA-MB-468 breast
  GI50: 2.17 µM
  TGI: 5.6 µM
BT-549 breast
  GI50: 2.36 µM
  TGI: 7.22 µM
OVCAR-4 ovarian
  GI50: 2.96 µM
  TGI: > 100 µM
HOP-92 NSCLC
  GI50: 2.02 µM
  TGI: 5 µM
MOLT-4 leukemia
  GI50: 2.21 µM
  TGI: > 100 µM
SK-MEL-28 melanoma
  GI50: 2.54 µM
  TGI: 5.91 µM
A498 renal
  GI50: 17 µM
  TGI: 50.5 µM
A549 NSCLC
  GI50: 3.32 µM
  TGI: 19.5 µM
RXF 393 renal
  GI50: 1.74 µM
  TGI: 3.4 µM
M14 melanoma
  GI50: 3.14 µM
  TGI: 13.2 µM
KM12 colon
  GI50: 2.38 µM
  TGI: 5.43 µM
TK-10 renal
  GI50: 4.12 µM
  TGI: 16.7 µM
LOX IMVI melanoma
  GI50: 1.73 µM
  TGI: 3.42 µM
NCI-H522 lung
  GI50: 2.49 µM
  TGI: 7.81 µM
UACC-257 melanoma
  GI50: 2.46 µM
  TGI: 8.92 µM
SF-295 CNS
  GI50: 2.13 µM
  TGI: 4.77 µM
CCRF-CEM leukemia
  GI50: 2.08 µM
  TGI: 6.9 µM
CAKI-1 renal
  GI50: 2.96 µM
  TGI: 12.1 µM
OVCAR-3 ovarian
  GI50: 2.27 µM
  TGI: 5.87 µM
SK-MEL-5 melanoma
  GI50: 1.52 µM
  TGI: 2.95 µM
HL-60(TB) leukemia
  GI50: 2.69 µM
  TGI: 14.7 µM
NCI-H460 lung
  GI50: 1.91 µM
  TGI: 3.9 µM
COLO 205 colon
  GI50: 1.95 µM
  TGI: 3.73 µM

Source: PubChem BioAssay (NCI)
